Data published in ChEMBL document CHEMBL1201862, “PubChem BioAssay data set” (2004).
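Five concentrations, 48 hours, 96-well plates. Here, GI50 denotes the concentration required for 50% inhibition of growth.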 Active and inactive are the calls of the source. Rule as the data show it: active = GI50 up to about 1.1 µM and inactive = higher.

Experiments:
Assay in all cases: inhibition of tumour cell growth, NCI panel, 48 h
[1] = system: 786-0
[2] = system: A498
[3] = system: A549
[4] = system: DLD-1
[5] = system: EKVX
[6] = system: HOP-62
[7] = system: IGROV-1
[8] = system: M14
[9] = system: NCI-H23
[10] = system: OVCAR-3
[11] = system: SF-539
[12] = system: SK-MEL-2
[13] = system: TK-10
[14] = system: UACC-62
[15] = system: UO-31
[16] = system: HT-29
[17] = system: SNB-75

Measured: GI50

O=Cn1c2ccccc2c2ccccc21
inactive: [1] > 100 µM | [2] > 100 µM | [3] > 100 µM | [4] > 100 µM | [5] > 100 µM | [6] > 100 µM | [7] > 100 µM | [8] > 100 µM | [9] > 100 µM | [10] > 100 µM | [11] > 100 µM | [12] > 100 µM | [13] > 100 µM | [14] > 100 µM | [15] > 100 µM

CCOc1ccccc1NC(=O)CC1C(=O)Nc2ccccc2[S+]1[O-] (stereo not drawn)
inactive: [1] 63.1 µM | [2] > 100 µM | [3] > 100 µM | [4] > 100 µM | [5] 43 µM | [16] > 100 µM | [7] 51.5 µM | [8] 77.1 µM | [9] > 100 µM | [10] 39.5 µM | [11] > 100 µM | [12] > 100 µM | [17] > 100 µM | [13] > 100 µM | [14] 26.3 µM | [15] 85.3 µM

COC(=O)C(=O)C(/C(=N/N)C(=O)Nc1ccccc1C(N)=O)c1nc2ccc([N+](=O)[O-])cc2nc1O (stereo not drawn)
active: [2] 1.01 µM
inactive: [1] > 100 µM | [3] > 100 µM | [4] > 100 µM | [5] 18.4 µM | [6] > 100 µM | [16] > 100 µM | [7] > 100 µM | [8] > 100 µM | [9] > 100 µM | [10] > 100 µM | [11] > 100 µM | [12] > 100 µM | [13] > 100 µM | [14] > 100 µM | [15] 58.2 µM

N#Cc1cccc(C2SCc3nc4ccccc4n32)c1 (stereo not drawn)
inactive: [1] > 100 µM | [2] 95.9 µM | [3] 92.7 µM | [4] 65.5 µM | [5] 67.6 µM | [6] > 100 µM | [16] > 100 µM | [7] 32.9 µM | [9] 74.8 µM | [11] > 100 µM | [12] > 100 µM | [13] > 100 µM | [14] 37.2 µM | [15] 61.1 µM

CCCCNC1CCCCC[C@H]1O (stereo partly drawn)
inactive: [1] > 100 µM | [3] > 100 µM | [4] > 100 µM | [5] > 100 µM | [6] > 100 µM | [16] > 100 µM | [7] > 100 µM | [8] > 100 µM | [9] > 100 µM | [10] > 100 µM | [11] > 100 µM | [12] > 100 µM | [17] > 100 µM | [13] > 100 µM | [14] > 100 µM | [15] > 100 µM

NC(=O)NNC(=O)CCn1[nH]c(=O)c(Cl)c(Cl)c1=O
inactive: [1] > 100 µM | [2] > 100 µM | [3] > 100 µM | [4] > 100 µM | [5] > 100 µM | [6] > 100 µM | [16] > 100 µM | [7] > 100 µM | [8] > 100 µM | [9] > 100 µM | [10] > 100 µM | [12] > 100 µM | [17] > 100 µM | [13] > 100 µM | [14] > 100 µM | [15] > 100 µM

O=C1OCc2nc3c(c(-c4ccccc4C(F)(F)F)c21)C(=O)OC3
inactive: [1] > 100 µM | [2] > 100 µM | [3] > 100 µM | [4] > 100 µM | [5] > 100 µM | [6] > 100 µM | [7] > 100 µM | [8] > 100 µM | [9] > 100 µM | [10] > 100 µM | [11] > 100 µM | [12] > 100 µM | [13] > 100 µM | [14] > 100 µM | [15] > 100 µM
